Assay results taken from publication PMC5136619, “Crystal structure of bacterial haem importer complex in the inward-facing conformation” (Nature Communications, 2016).

Target: T1, BhuUV-T (Burkholderia cenocepacia, UniProt B4EKB5)
T1 construct: gene hmuV; His8-BhuU full length with BhuV, plus haem-free BhuT 40-311 (GST cut off by PreScission) in ATPase assay; GFP-tagged BhuT in pull-down; heteropentamer; with Heme ABC transporter permease BhuU
Assay: His-tag pull-down, release of GFP-BhuT from immobilized BhuUV
Type: binding
Settings: 1 mM AMP–PNP, 1 mM MgCl2, 0.15% DM, pH 7.5, on ice; nucleotide site of BhuV

T1 sequence (B4EKB3 entry or part of it): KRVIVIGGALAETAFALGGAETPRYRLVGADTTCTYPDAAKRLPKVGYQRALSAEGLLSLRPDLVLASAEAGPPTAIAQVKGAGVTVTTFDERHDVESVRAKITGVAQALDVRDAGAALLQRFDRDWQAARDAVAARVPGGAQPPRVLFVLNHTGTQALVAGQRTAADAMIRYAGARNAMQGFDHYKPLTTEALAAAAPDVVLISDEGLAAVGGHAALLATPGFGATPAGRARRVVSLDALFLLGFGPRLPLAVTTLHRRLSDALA
T1 sequence (B4EKB4 entry or part of it, further chain): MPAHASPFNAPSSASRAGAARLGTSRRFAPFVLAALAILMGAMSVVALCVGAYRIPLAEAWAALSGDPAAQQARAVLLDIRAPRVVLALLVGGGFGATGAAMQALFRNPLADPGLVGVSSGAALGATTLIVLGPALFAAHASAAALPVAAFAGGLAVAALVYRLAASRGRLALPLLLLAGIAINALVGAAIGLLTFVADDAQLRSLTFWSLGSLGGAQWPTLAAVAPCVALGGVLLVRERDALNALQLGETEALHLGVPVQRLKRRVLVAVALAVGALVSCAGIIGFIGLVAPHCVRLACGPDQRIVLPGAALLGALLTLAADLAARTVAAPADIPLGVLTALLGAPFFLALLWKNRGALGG
T1 sequence (B4EKB5 entry or part of it): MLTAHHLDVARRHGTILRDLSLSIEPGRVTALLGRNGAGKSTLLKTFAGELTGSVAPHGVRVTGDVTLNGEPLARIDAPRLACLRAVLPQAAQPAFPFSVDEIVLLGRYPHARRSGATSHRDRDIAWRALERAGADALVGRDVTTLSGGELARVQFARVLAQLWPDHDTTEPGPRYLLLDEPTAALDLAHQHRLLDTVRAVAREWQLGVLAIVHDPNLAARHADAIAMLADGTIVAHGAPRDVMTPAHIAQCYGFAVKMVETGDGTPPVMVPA

Nc1ncnc2c1ncn2[C@@H]1O[C@H](COP(=O)(O)OP(=O)(O)NP(=O)(O)O)[C@@H](O)[C@H]1O [AMP–PNP] was tested, and the “His-tag pull-down, release of GFP-BhuT from immobilized BhuUV” value was “both ATP and AMP–PNP caused the dissociation of GFP-BhuT from BhuUV”.
